From patent US11945811B2, “Potassium channel inhibitors” (ACESION PHARMA APS, priority 2021, dated 2024)

The molecules below were run against T1, human SK3 channel (hKCa2.3) (Homo sapiens, UniProt Q9UGI6) (assay: Automated patch clamping (QPatch 16 HT whole-cell recordings)). Details: HEK-293 cells stably expressing hKCa2.3; currents measured at −80 mV; normalized to N-methyl bicuculline; read-out: IC50 in the Automated patch clamping assay (SK3 channel inhibition).
T1 construct: expressed in transfected cells
Format: cell-based
Experimental: Automated whole cell patch-clamp recordings were performed using a QPatch 16 HT system and single-hole Qplates (Sophion, Denmark) on HEK-293 cells stably expressing the human SK3 channel (hKCa2.3). Cells were cultured and prepared for experiments using normal cell culturing procedures. A total of 4-5 million cells were used per experiment. The Qpatch automatically generates giga sealing, whole-cell formation, compound application and recording of current. hKCa2.3 currents were recorded in symmetrical K^+ solutions. The intracellular/pipette solution contained 154 mM KCl, 10 mM HEPES and 10 mM EGTA. CaCl2 is added to give calculated free concentrations of Ca^2+ of 0.4 μM and MgCl2 is added to give a free concentration of 1 mM. In order to maintain a total [K^+] of 156 mM (corresponding to the concentration in the extracellular ringer) a fixed amount of KOH (15 mM) is added, thereafter pH is adjusted with HCl to pH=7.2. Expected osmolarity: 275 mOsm. Sucrose was added to a final osmolarity around 295 mosm. The extracellular solution consisted of (in mM): CaCl2 0.1, MgCl2 3, KCl 150, HEPES 10 and glucose 10, pH=7.4 adjusted with KOH. Osmolarity between 285-295 mosm. The cells were held at 0 mV and hKCa2.3 currents were elicited by a linear voltage ramp from −80 mV to +80 mV (200 ms in duration) applied every 5th second.
The compound application protocol consisted of 12 recording periods lasting 200 s: 1) Baseline recordings in extracellular solution; 2) Application of the positive control N-methyl bicuculline (100 μM), which is characterized by full efficacy, fast on- and off-rate; 3-4) Wash-out; 5-10) Increasing concentrations of test compound to establish an IC50 value; 11-12) Wash-out; 13) positive control with compound NS8593 (N-[(1R)-1,2,3,4-tetrahydro-1-naphthalenyl]-1H-benzimidazol-2-amine) (1 μM) or with N-methyl bicuculline (100 μM). Data were sampled at 10 kHz, 4th order Bessel filter, cut-off frequency 3 kHz. Currents were compensated for run-down. Potency was quantified as the concentration needed to inhibit half of the SK channel activity and reported as an IC50 value.
All effects of compounds of the present invention as tested were normalized to the observed inhibitory effect of N-methyl bicuculline. Currents were measured at −80 mV.

Compound	IC50
CC(CO)(Nc1nc2c(Cn3ccoc3=N)cccc2[nH]1)c1ccc(Cl)c(Cl)c1 (single isomer, unassigned) [Example 19a]	< 1 µM
Cc1cn(Cc2cccc3[nH]c(NC(C)(CO)c4cccc(C(F)(F)F)c4)nc23)c(=N)o1 (single isomer, unassigned) [Example 24a]	< 30 µM
CC(CO)(Nc1nc2c(Cn3ccoc3=N)cccc2[nH]1)c1cccc(OC(F)(F)F)c1 (single isomer, unassigned) [Example 27b]	< 30 µM
CC(CO)(Nc1nc2c(Cn3ccoc3=N)cccc2[nH]1)c1ccc(Cl)c(F)c1 (single isomer, unassigned) [Example 39a, 2-(4-chloro-3-fluorophenyl)-2-({4-[(2-imino-2,3-dihydro-1,3-oxazol-3-yl)methyl]-1H-1,3-benzodiazol-2-yl}amino)propan-1-ol]	< 1 µM
CC(CO)(Nc1nc2c(Cn3ccoc3=N)cccc2[nH]1)c1ccc(Cl)c(F)c1 (single isomer, unassigned) [Example 39b, 2-(4-chloro-3-fluorophenyl)-2-({4-[(2-imino-2,3-dihydro-1,3-oxazol-3-yl)methyl]-1H-1,3-benzodiazol-2-yl}amino)propan-1-ol]	< 30 µM
CC(CO)(Nc1nc2c(CNc3ccon3)cccc2[nH]1)c1cccc(Cl)c1F (single isomer, unassigned) [Example 43a]	< 30 µM
CC(CO)(Nc1nc2c(CNc3ccon3)cccc2[nH]1)c1ccc(Cl)c(F)c1 (single isomer, unassigned) [Example 44a]	< 30 µM
CC(CO)(Nc1nc2c(Cn3ccoc3=N)cccc2[nH]1)c1cc(F)cc(Cl)c1 (single isomer, unassigned) [Example 45a]	< 1 µM
CC(CO)(Nc1nc2c(Cn3ccoc3=N)cccc2[nH]1)c1cc(Cl)ccc1F (single isomer, unassigned) [Example 47a]	< 1 µM
CC(CO)(Nc1nc2c(Cn3ccoc3=N)cccc2[nH]1)c1cccc(Cl)c1 (single isomer, unassigned; (+)) [Example 3b, (+)-2-(3-chlorophenyl)-2-({4-[(2-imino-2,3-dihydro-1,3-oxazol-3-yl)methyl]-1H-1,3-benzodiazol-2-yl}amino)propan-1-ol]	< 30 µM
CC(CO)(Nc1nc2c(Cn3ccoc3=N)cccc2[nH]1)c1ccc(F)c(Cl)c1 (single isomer, unassigned; (+)) [Example 8b, (+)-2-(3-chloro-4-fluorophenyl)-2-({4-[(2-imino-2,3-dihydro-1,3-oxazol-3-yl)methyl]-1H-1,3-benzodiazol-2-yl}amino)propan-1-ol]	< 30 µM
Cc1cc(NCc2cccc3[nH]c(NC(C)(CO)c4ccc(F)c(Cl)c4)nc23)no1 (single isomer, unassigned; (+)) [Example 12b, (+)-2-(3-chloro-4-fluorophenyl)-2-((4-(((5-methylisoxazol-3-yl)amino)methyl)-1H-benzo[d]imidazol-2-yl)amino)propan-1-ol]	< 30 µM
CC(CO)(Nc1nc2c(Cn3ccoc3=N)cccc2[nH]1)c1cccc(C(F)(F)F)c1 (single isomer, unassigned; (+)) [Example 18b, (+)-2-({4-[(2-imino-2,3-dihydro-1,3-oxazol-3-yl)methyl]-1H-1,3-benzodiazol-2-yl}amino)-2-[3-(trifluoromethyl)-phenyl]propan-1-ol]	< 30 µM
CC(CO)(Nc1nc2c(Cn3ccoc3=N)cccc2[nH]1)c1ccc(Cl)c(Cl)c1 (single isomer, unassigned; (+)) [Example 19b, (+)-2-(3,4-dichlorophenyl)-2-({4-[(2-imino-2,3-dihydro-1,3-oxazol-3-yl)methyl]-1H-1,3-benzodiazol-2-yl}amino)propan-1-ol]	< 30 µM
Cc1cn(Cc2cccc3[nH]c(NC(C)(CO)c4cccc(C(F)(F)F)c4)nc23)c(=N)o1 (single isomer, unassigned; (+)) [Example 24b, (+)-2-({4-[(2-imino-5-methyl-2,3-dihydro-1,3-oxazol-3-yl)methyl]-1H-1,3-benzodiazol-2-yl}amino)-2-[3-(trifluoromethyl)-phenyl]propan-1-ol]	< 1 µM
CC(CO)(Nc1nc2c(Cn3ccoc3=N)cccc2[nH]1)c1cccc(OC(F)(F)F)c1 (single isomer, unassigned; (+)) [Example 27a, (+)-2-({4-[(2-imino-2,3-dihydro-1,3-oxazol-3-yl)methyl]-1H-1,3-benzodiazol-2-yl}amino)-2-[3-(trifluoromethoxy)phenyl]propan-1-ol]	< 1 µM
CC(CO)(Nc1nc2c(Cn3ccoc3=N)cccc2[nH]1)c1cccc(Cl)c1F (single isomer, unassigned; (+)) [Example 41b, (+)-2-(3-chloro-2-fluorophenyl)-2-({4-[(2-imino-2,3-dihydro-1,3-oxazol-3-yl)methyl]-1H-1,3-benzodiazol-2-yl}amino)propan-1-ol]	< 30 µM
CC(CO)(Nc1nc2c(CNc3ncco3)cccc2[nH]1)c1cccc(Cl)c1F (single isomer, unassigned; (+)) [Example 42a, (+)-2-(3-chloro-2-fluorophenyl)-2-[(4-{[(1,3-oxazol-2-yl)amino]methyl}-1H-1,3-benzodiazol-2-yl)amino]propan-1-ol]	< 30 µM
CC(CO)(Nc1nc2c(Cn3ccoc3=N)cccc2[nH]1)c1cc(F)cc(Cl)c1 (single isomer, unassigned; (+)) [Example 45b, (+)-2-(3-chloro-5-fluorophenyl)-2-({4-[(2-imino-2,3-dihydro-1,3-oxazol-3-yl)methyl]-1H-1,3-benzodiazol-2-yl}amino)propan-1-ol]	< 30 µM
CC(CO)(Nc1nc2c(Cn3ccoc3=N)cccc2[nH]1)c1cc(Cl)ccc1F (single isomer, unassigned; (+)) [Example 47b, (+)-2-(5-chloro-2-fluorophenyl)-2-({4-[(2-imino-2,3-dihydro-1,3-oxazol-3-yl)methyl]-1H-1,3-benzodiazol-2-yl}amino)propan-1-ol]	< 30 µM
CC(CO)(Nc1nc2c(CNc3ncco3)cccc2[nH]1)c1cc(Cl)ccc1F (single isomer, unassigned; (+)) [Example 48a, (+)-2-(5-chloro-2-fluorophenyl)-2-[(4-{[(1,3-oxazol-2-yl)amino]methyl}-1H-1,3-benzodiazol-2-yl)amino]propan-1-ol]	< 30 µM
CC(CO)(Nc1nc2c(CNc3ccon3)cccc2[nH]1)c1cc(Cl)ccc1F (single isomer, unassigned; (+)) [Example 49a, (+)-2-(5-chloro-2-fluorophenyl)-2-[(4-{[(1,2-oxazol-3-yl)amino]methyl}-1H-1,3-benzodiazol-2-yl)amino]propan-1-ol]	< 30 µM
CC(CO)(Nc1nc2c(Cn3ccoc3=N)cccc2[nH]1)c1cccc(Cl)c1 (single isomer, unassigned; (-)) [Example 3a, (−)-2-(3-chlorophenyl)-2-({4-[(2-imino-2,3-dihydro-1,3-oxazol-3-yl)methyl]-1H-1,3-benzodiazol-2-yl}amino)propan-1-ol]	< 1 µM
CC(CO)(Nc1nc2c(Cn3ccoc3=N)cccc2[nH]1)c1ccc(F)c(Cl)c1 (single isomer, unassigned; (-)) [Example 8a, (−)-2-(3-chloro-4-fluorophenyl)-2-({4-[(2-imino-2,3-dihydro-1,3-oxazol-3-yl)methyl]-1H-1,3-benzodiazol-2-yl}amino)propan-1-ol]	< 1 µM
Cc1cc(NCc2cccc3[nH]c(NC(C)(CO)c4ccc(F)c(Cl)c4)nc23)no1 (single isomer, unassigned; (-)) [Example 12a, (−)-2-(3-chloro-4-fluorophenyl)-2-((4-(((5-methylisoxazol-3-yl)amino)methyl)-1H-benzo[d]imidazol-2-yl)amino)propan-1-ol]	< 1 µM
Cc1coc(=N)n1Cc1cccc2[nH]c(NC(C)(CO)c3ccc(F)c(Cl)c3)nc12 (single isomer, unassigned; (-)) [Example 13a, (−)-2-(3-chloro-4-fluorophenyl)-2-({4-[(2-imino-4-methyl-2,3-dihydro-1,3-oxazol-3-yl)methyl]-1H-1,3-benzodiazol-2-yl}amino)propan-1-ol]	< 1 µM
CC(CO)(Nc1nc2c(Cn3ccoc3=N)cccc2[nH]1)c1cccc(C(F)(F)F)c1 (single isomer, unassigned; (-)) [Example 18a, (−)-2-({4-[(2-imino-2,3-dihydro-1,3-oxazol-3-yl)methyl]-1H-1,3-benzodiazol-2-yl}amino)-2-[3-(trifluoromethyl)-phenyl]propan-1-ol]	< 1 µM
